This is an account of results in ChEMBL document CHEMBL4602732, “Optimizing Pyrazolopyrimidine Inhibitors of Calcium Dependent Protein Kinase 1 for Treatment of Acute and Chronic Toxoplasmosis” (J Med Chem, 2020).

The test system of data set [1] is Toxoplasma gondii. The data set is described as follows: Antiparasitic activity against type 1 Toxoplasma gondii RH tachyzoites infected in CD1 mouse assessed as reduction in mouse death at 30 mg/kg, po administered twice daily via gavage for 7 days by bioluminescence assay. In kind it is functional, organism-based.
Data set [2] can be described thus: Genotoxicity in Salmonella typhimurium TA100 at 0.004 to 5 mg/ml measured after 90 mins in absence of rat S9 fraction by mini-Ames test. The note with it: salmonella enterica subsp. enterica serovar typhimurium. In kind it is toxicity.
A short description of data set [3]: Half life in mouse liver microsomes at 10 uM preincubated for 10 mins followed by NADPH addition by LC-MS/MS analysis. In kind it is ADME, Microsome. The note with it: liver microsomes.
Data set [4] deals with Toxoplasma gondii. The data set is described as follows: Protection against reactivation of type 2 Toxoplasma gondii ME49 infection in sulfadiazin-treated Ifngr1-/- CD1 mouse assessed as reduction in mouse death at 60 mg/kg, po administered twice daily via gavage for 8 days measured up to 30 days. In kind it is functional, organism-based.
Data set [5] in a line: Ratio of drug level in central nervous system to plasma in CD1 mouse at 10 mg/kg, po administered via gavage measured after 8 hrs by LC-MS/MS analysis. In kind it is ADME, organism-based, CNS/Plasma. The note with it: central nervous system and plasma.
Data set [6] in a line: AUC in CD1 mouse at 3 mg/kg, iv or 10 mg/kg, po administered via gavage by LC-MS/MS analysis. In kind it is ADME, organism-based. The settings on record: in vivo.
A short description of data set [7]: Genotoxicity in Salmonella typhimurium TA100 at 0.004 to 5 mg/ml measured after 90 mins in presence of rat S9 fraction by mini-Ames test. In kind it is toxicity, subcellular. The note with it: salmonella enterica subsp. enterica serovar typhimurium. On the technique in general: The Ames test detects mutagens through reverse mutation in bacteria.
In data set [8] the test system is Toxoplasma gondii. The data set is described as follows: Antiparasitic activity against type 1 Toxoplasma gondii RH tachyzoites infected in CD1 mouse assessed as […] at 30 mg/kg, po administered twice daily via gavage for 7 days followed by lung and brain isolation on 15 days post-infection and co-culture with naive CD1 mouse. In kind it is functional.

For data set [9], the target named is T1, Alpha-2A adrenergic receptor (Homo sapiens, UniProt P08913).
T1 sequence (P08913 whole entry): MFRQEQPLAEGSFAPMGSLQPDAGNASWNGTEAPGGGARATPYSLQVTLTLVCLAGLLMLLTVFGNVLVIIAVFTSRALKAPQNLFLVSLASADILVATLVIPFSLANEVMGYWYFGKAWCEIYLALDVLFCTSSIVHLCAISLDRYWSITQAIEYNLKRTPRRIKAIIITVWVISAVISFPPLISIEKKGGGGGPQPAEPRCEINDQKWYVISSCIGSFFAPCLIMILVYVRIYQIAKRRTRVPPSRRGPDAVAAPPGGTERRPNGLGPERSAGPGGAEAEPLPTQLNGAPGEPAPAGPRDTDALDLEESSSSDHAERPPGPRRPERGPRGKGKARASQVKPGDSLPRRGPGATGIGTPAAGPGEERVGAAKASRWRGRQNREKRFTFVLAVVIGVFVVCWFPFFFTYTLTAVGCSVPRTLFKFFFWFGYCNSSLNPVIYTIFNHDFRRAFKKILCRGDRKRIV
The data set is described as follows: Antagonist activity at recombinant human Gi/Go-coupled ADRA2A expressed in CHOK1 cells assessed as reduction in UK14304-induced inhibition of forskolin-stimulated cAMP accumulation. In kind it is cell-based. The settings on record: cho-k1. In general terms: Cyclic AMP is a second messenger, typically raised through Gs and lowered through Gi signalling.

Data set [10] can be described thus: Inhibition of Toxoplasma gondii full-length C-terminal His-tagged CDPK1 G128M mutant expressed in Escherichia coli BL21(DE3)V2RpAcYc-LIC+LamP using syntide-2 peptide as substrate incubated for 20 to 40 mins by ELISA.
The test system of the next data set is MDR1. The data set is described as follows: Efflux ratio of apparent permeability across basolateral to apical side over apical to basolateral side in MDCK2-MDR1 cells at 2 uM measured after 150 mins by LC-MS/MS analysis. In kind it is ADME, cell-based, Canis lupus familiaris. The note with it: dog, MDCK-MDR1.
Data set [11] is described as follows: Cytotoxicity against human SH-SY5Y cells assessed as cell growth at 20 uM measured after 72 hrs by cellTiter 96 AQueous non-radioactive cell proliferation assay relative to control. In kind it is cell-based. The note with it: read-out: Activity.
Data set [12] concerns Toxoplasma gondii. The data set is described as follows: Protection against reactivation of type 2 Toxoplasma gondii ME49 infection in sulfadiazin-treated Ifngr1-/- CD1 mouse assessed as increase in mouse survival at 60 to 120 mg/kg, po administered twice daily via gavage for 8 days measured up to 30 days. In kind it is functional, organism-based.
A short description of data set [13]: Oral bioavailability in CD1 mouse at 10 mg/kg administered via gavage by LC-MS/MS analysis. The settings on record: in vivo. In kind it is ADME, organism-based.
Data set [14] in a line: Kinetic solubility of the compound in pH 7.4 phosphate buffer measured after 24 hrs by UV-HPLC analysis. In kind it is physicochemical. The note with it: pH 7.4, 24 h.
The next data set has as its system CHO-K1. The data set is described as follows: Genotoxicity in CHOK1 cells measured after 3 hrs in presence of Sprague-Dawley rat liver S9 fraction by Hoechst/calcein-AM staining based micronucleus test. In kind it is toxicity, cell-based, Cricetulus griseus. The settings on record: chinese hamster, s9, 3 h.
A short description of data set [15]: Protein binding in mouse brain assessed as unbound fraction. In kind it is ADME, tissue-based.
In another data set the target is Cytochrome P450 2C19 (Homo sapiens, UniProt P33261). The data set is described as follows: Inhibition of CYP2C19 in human liver microsomes using S-mephenytoin as substrate measured after 10 mins by LC-MS/MS analysis. In kind it is ADME. (In general: Liver microsomes are a subcellular fraction often used to study metabolism.)
Data set [16] concerns Toxoplasma gondii. The data set is described as follows: Antiparasitic activity against type 1 Toxoplasma gondii RH tachyzoites infected in CD1 mouse assessed as reduction in mouse death at 15 mg/kg, po administered four times daily via gavage for 7 days by bioluminescence assay. In kind it is functional, organism-based.
The nature of data set [17]: Cytotoxicity against human HepG2 cells assessed as cell growth at 20 uM measured after 72 hrs by cellTiter 96 AQueous non-radioactive cell proliferation assay relative to control. In kind it is cell-based. The settings on record: read-out: Activity.
The nature of data set [18]: Time at which plasma concentration stays above in vitro EC50 for antiparasitic activity against 2F clone of type 1 Toxoplasma gondii RH tachyzoites expressing luciferase infected in HFF in CD1 mouse at 30 mg/kg, po. In kind it is ADME, organism-based. The settings on record: in vivo.
A short description of data set [19]: Genotoxicity in Salmonella typhimurium TA98 at 0.004 to 5 mg/ml measured after 90 mins in presence of rat S9 fraction by mini-Ames test. In kind it is toxicity, subcellular. The note with it: salmonella enterica subsp. enterica serovar typhimurium.
In data set [20] the target is Casein kinase I epsilon (CKepsilon) (Homo sapiens, UniProt P49674). The data set is described as follows: Inhibition of recombinant human full-length His-tagged CKepsilon expressed in baculovirus expression system at 1 uM by Lanthascreen assay relative to control.
In a further data set the target is T2, Cytochrome P450 1A2 (Homo sapiens, UniProt P05177).
T2 sequence (P05177 whole entry): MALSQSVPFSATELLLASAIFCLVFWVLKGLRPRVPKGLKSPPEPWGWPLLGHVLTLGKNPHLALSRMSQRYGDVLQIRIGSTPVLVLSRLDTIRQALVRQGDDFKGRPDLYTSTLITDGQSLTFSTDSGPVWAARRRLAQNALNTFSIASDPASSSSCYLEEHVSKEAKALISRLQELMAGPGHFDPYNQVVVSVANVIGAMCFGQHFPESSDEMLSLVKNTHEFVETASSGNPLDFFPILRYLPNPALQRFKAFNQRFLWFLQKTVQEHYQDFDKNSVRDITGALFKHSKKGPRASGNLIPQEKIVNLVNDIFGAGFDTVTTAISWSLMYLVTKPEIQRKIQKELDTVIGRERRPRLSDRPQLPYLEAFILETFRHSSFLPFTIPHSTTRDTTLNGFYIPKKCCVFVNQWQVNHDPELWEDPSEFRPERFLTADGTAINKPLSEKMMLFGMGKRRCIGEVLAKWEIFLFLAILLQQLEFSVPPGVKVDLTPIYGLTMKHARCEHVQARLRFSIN
The data set is described as follows: Inhibition of CYP1A2 in human liver microsomes using phenacetin as substrate measured after 10 mins by LC-MS/MS analysis. In kind it is ADME.

pEC50, pIC50: −log10 of the molar value. The source made the active and inactive calls. The calls are words filed in the database; no cut-off is given here.

Chain of Casein kinase I epsilon (CKepsilon) (P49674 whole entry): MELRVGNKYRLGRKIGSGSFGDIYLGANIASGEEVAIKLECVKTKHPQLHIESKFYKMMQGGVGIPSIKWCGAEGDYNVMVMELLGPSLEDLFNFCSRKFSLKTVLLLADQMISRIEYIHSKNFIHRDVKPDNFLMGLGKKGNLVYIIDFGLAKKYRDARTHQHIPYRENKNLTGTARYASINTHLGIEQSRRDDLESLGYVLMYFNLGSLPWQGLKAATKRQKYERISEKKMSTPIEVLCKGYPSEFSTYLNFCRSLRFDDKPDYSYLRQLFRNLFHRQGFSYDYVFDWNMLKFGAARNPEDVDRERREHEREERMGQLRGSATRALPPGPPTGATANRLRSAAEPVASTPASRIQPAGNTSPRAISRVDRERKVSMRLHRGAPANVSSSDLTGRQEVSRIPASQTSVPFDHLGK
Chain of Cytochrome P450 2C19 (P33261 whole entry): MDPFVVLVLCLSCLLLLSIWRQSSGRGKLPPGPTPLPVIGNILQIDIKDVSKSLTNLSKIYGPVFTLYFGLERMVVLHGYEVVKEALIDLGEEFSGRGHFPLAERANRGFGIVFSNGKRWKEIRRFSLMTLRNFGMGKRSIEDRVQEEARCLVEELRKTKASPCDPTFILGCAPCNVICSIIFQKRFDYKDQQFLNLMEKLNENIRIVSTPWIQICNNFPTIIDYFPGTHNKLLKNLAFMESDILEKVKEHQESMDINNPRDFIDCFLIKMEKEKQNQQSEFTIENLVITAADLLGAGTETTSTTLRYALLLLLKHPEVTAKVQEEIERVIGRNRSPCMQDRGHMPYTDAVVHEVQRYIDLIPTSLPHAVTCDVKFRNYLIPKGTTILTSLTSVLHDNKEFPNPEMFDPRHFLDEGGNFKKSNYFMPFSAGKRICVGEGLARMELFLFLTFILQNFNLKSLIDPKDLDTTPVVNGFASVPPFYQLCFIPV

As usually defined, the half-life is how long it takes for the measured level to halve. A low value points to fast loss. As a reminder, the Kp is tissue or fluid exposure divided by exposure in the circulation. What is called AUC is the area under the concentration-time curve, a measure of exposure. Higher therefore signals high exposure. The term pIC50 denotes the negative decadic logarithm of the IC50, by convention in mol/L. A high value points to a small IC50. As usually defined, the efflux ratio is the permeability from basolateral to apical divided by that in the opposite direction, in the common usage. Usually bioavailability stands for dose-corrected exposure relative to a reference, in per cent. Low readings indicate little systemic uptake, high ones much systemic uptake. A word on the fraction unbound: it is the share of the substance not bound to proteins or other matrix. As a reminder, the pEC50 is the EC50 on a negative log10 scale, so that one unit is a factor of ten. Low readings indicate a large EC50, high ones a small EC50. As usually defined, the inhibition is the relative decrease from the control value, in per cent. For the compound `Nc1ncnc2c1c(Oc1cc(C(F)(F)F)ccn1)nn2C1CC1`, the outcome in the data set with Toxoplasma gondii [1], in the data set on Toxoplasma gondii [4], in the data set on Toxoplasma gondii [12] and in the data set with Toxoplasma gondii [16] was Active. Besides, the Activity result in data set [2] was “Non-Toxic”; in data set [7], “Non-Toxic”; in the data set on CHO-K1, over 1000 µM; in [19] it was “Non-Toxic”. The half-life at 10 µM in data set [3] was over 2.42 h. For the same compound, in [5], the Kp at 8 h was found to be 0.96. The same compound displayed an AUC in [6] of 2677 ng·h/mL. The survival at 30 mg/kg with Toxoplasma gondii [8] was 20%. Besides, the “inhibition (INH)” value in [9] was found to be 51%. This compound also had a pIC50 in [10] of under 4.70. The efflux ratio at […], 2 µM with MDR1 turned out to be 0.64. For the same compound, the viability at 72 h, 20 µM in data set [11] turned out to be 103%; in data set [17], 104%. The compound further returned a bioavailability in data set [13] of 83%. The same compound came in with a Kinetic_solubility in data set [14] of 191 µM. For the same compound, the fraction unbound in data set [15] turned out to be 0.101. For the same compound, the pEC50 at Cytochrome P450 2C19 is 5.24; on Cytochrome P450 1A2 it was 6.34. In addition, the “T>EC50” value in data set [18] was 8 h. Moreover, the inhibition at 1 µM in data set [20] is over 50%.
Consider `N#Cc1ccnc(Oc2nn([C@H]3C[C@H](F)C3)c3ncnc(N)c23)c1`, for which the Activity entry in [2] is “Non-Toxic”; in data set [7] it was “Non-Toxic”; in the data set with CHO-K1, over 100 µM; in data set [19], “Non-Toxic”. The half-life at 10 µM in data set [3] is over 2.42 h. In data set [6], this compound yielded an AUC of 3140 ng·h/mL. Besides, the pIC50 in data set [10] is under 4.70. For the same compound, the values for the viability at 72 h, 20 µM in [11] and in [17] were 103% and 101%, respectively. Further, the bioavailability in data set [13] was 43.1%. In addition, the inhibition at 1 µM in data set [20] was over 50%. In addition, the pEC50 at Cytochrome P450 1A2 is 4.68.
